Assay results taken from patent publication US10597388B2, “Pyridazinone herbicides” (FMC CORPORATION, priority 2014, dated 2020).

Assays:
Test in all cases: Test D controlled growth environment herbicide test, pre- and postemergence
Assay type in all cases: in vivo
[1] = test system: mustard, wild (wild mustard, Sinapis arvensis)
Excerpt: (§1) Seeds of plant species selected from bluegrass (annual bluegrass, Poa annua), blackgrass (Alopecurus myosuroides), Canada thistle (Cirsium arvense), canarygrass (Phalaris minor), chickweed (common chickweed, Stellaria media), geranium, cutleaf (cutleaf geranium, Geranium dissectum), galium (catchweed bedstraw, Galium aparine), bromegrass, downy (downy bromegrass, Bromus tectorum), field poppy (Papaver rhoeas), field violet (Viola arvensis), foxtail, green (green foxtail, Setaria viridis), deadnettle (henbit deadnettle, Lamium amplexicaule), ryegrass, Italian (Italian ryegrass, Lolium multiflorum), kochia (Kochia scoparia), lambsquarters (Chenopodium album), oilseed rape (Brassica napus), pigweed (Amaranthus retroflexus), chamomile (scentless chamomile, Matricaria inodora), Russian thistle (Salsola kali), speedwell (bird's-eye speedwell, Veronica persica), barley, spring (spring barley, Hordeum vulgare), wheat, spring (spring wheat, Triticum aestivum), buckwheat, wild (wild buckwheat, Polygonum convolvulus), mustard, wild (wild mustard, Sinapis arvensis), oat, wild (wild oat, Avena fatua), radish, wild (wild radish, Raphanus raphanistrum), windgrass (Apera spica-venti), barley, winter (winter barley, Hordeum vulgare), and wheat, winter (winter wheat, Triticum aestivum) were planted into a silt loam soil and treated preemergence with test chemicals formulated in a non-phytotoxic solvent mixture which included a surfactant.
(§2) At the same time, these species were planted in pots containing Redi-Earth® planting medium (Scotts Company, 14111 Scottslawn Road, Marysville, Ohio 43041) comprising spaghnum peat moss, vermiculite, wetting agent and starter nutrients and treated with postemergence applications of the test chemicals formulated in the same manner. Plants ranged in height from 2 to 18 cm (1- to 4-leaf stage). Treated plants and controls were maintained in a controlled growth environment for 14 to 21 d after which time all species were compared to controls and visually evaluated. Plant response ratings, summarized in Table D, are based on a scale of 0 to 100 where 0 is no effect and 100 is complete control. A dash (-) response means no test result.

[2] = test system: radish, wild (wild radish, Raphanus raphanistrum)
Excerpt: as §1, §2

[3] = test system: foxtail, green (green foxtail, Setaria viridis)
Excerpt: as §1, §2

[4] = test system: barley, winter (winter barley, Hordeum vulgare)
Excerpt: as §1, §2

[5] = test system: bluegrass (annual bluegrass, Poa annua)
Excerpt: as §1, §2

[6] = test system: field poppy (Papaver rhoeas)
Excerpt: as §1, §2

[7] = test system: deadnettle (henbit deadnettle, Lamium amplexicaule)
Excerpt: as §1, §2

[8] = test system: chickweed (common chickweed, Stellaria media)
Excerpt: as §1, §2

[9] = test system: wheat, winter (winter wheat, Triticum aestivum)
Excerpt: as §1, §2

[10] = test system: windgrass (Apera spica-venti)
Excerpt: as §1, §2

[11] = test system: barley, spring (spring barley, Hordeum vulgare)
Excerpt: as §1, §2

[12] = test system: ryegrass, Italian (Italian ryegrass, Lolium multiflorum)
Excerpt: as §1, §2

[13] = test system: canarygrass (Phalaris minor)
Excerpt: as §1, §2

[14] = Postemergence, 31 g ai/ha, scale 0 to 100 (0 no effect, 100 complete control)
[15] = Postemergence, 125 g ai/ha, visual rating on scale 0 (no effect) to 100 (complete control), 14 to 21 d
[16] = Postemergence, 250 g ai/ha, scale 0 to 100 (0 no effect, 100 complete control)
[17] = Preemergence, 62 g ai/ha, scale 0 to 100 (0 no effect, 100 complete control)
[18] = Preemergence, 125 g ai/ha, scale 0 to 100 (0 no effect, 100 complete control)
[19] = Preemergence, 250 g ai/ha, scale 0 to 100 (0 no effect, 100 complete control)
[20] = postemergence, 62 g ai/ha, scale 0 to 100, 0 no effect, 100 complete control

## Cc1ccc2sc(C)c(-c3c(O)c(C)nn(C)c3=O)c2c1 [Compound 1, 4-(2,5-dimethylbenzo[b]thien-3-yl)-5-hydroxy-2,6-dimethyl-3(2H)-pyridazinone]
[1]; [14]
  Mustard, Wild plant response rating: 25
[1]; [15]
  Plant response rating, Mustard, Wild: 40
[1]; [16]
  Plant response rating, Mustard, Wild: 65
[1]; Preemergence, 31 g ai/ha
  Plant response rating (scale of 0 to 100), Mustard, Wild: 0
[1]; [17]
  Plant response rating, Mustard, Wild: 0
[1]; [18]
  Plant response rating, Mustard, Wild: 10
[1]; [19]
  Plant response rating, Mustard, Wild: 25
[1]; [20]
  Plant response rating, Mustard, Wild: 30
[2]; [14]
  Radish, Wild plant response rating: 10
[2]; [15]
  Plant response rating, Radish, Wild: 30
[2]; [16]
  Plant response rating, Radish, Wild: 60
[2]; Preemergence, 31 g ai/ha
  Plant response rating (scale of 0 to 100), Radish, Wild: 0
[2]; [17]
  Plant response rating, Radish, Wild: 0
[2]; [18]
  Plant response rating, Radish, Wild: 15
[2]; [19]
  Plant response rating, Radish, Wild: 100
[2]; [20]
  Plant response rating, Radish, Wild: 20
[3]; [14]
  Foxtail, Green plant response rating: 50
[3]; [15]
  Plant response rating, Foxtail, Green: 75
[3]; [16]
  Plant response rating, Foxtail, Green: 85
[3]; Preemergence, 31 g ai/ha
  Plant response rating (scale of 0 to 100), Foxtail, Green: 10
[3]; [17]
  Plant response rating, Foxtail, Green: 15
[3]; [18]
  Plant response rating, Foxtail, Green: 75
[3]; [19]
  Plant response rating, Foxtail, Green: 100
[3]; [20]
  Plant response rating, Foxtail, Green: 65
[4]; [14]
  Plant response rating, Barley, Winter: 5
[4]; [15]
  Plant response rating, Barley, Winter: 5
[4]; [16]
  Plant response rating, Barley, Winter: 10
[4]; Preemergence, 31 g ai/ha
  Plant response rating (scale of 0 to 100), Barley, Winter: 0
[4]; [17]
  Plant response rating, Barley, Winter: 0
[4]; [18]
  Plant response rating, Barley, Winter: 0
[4]; [19]
  Barley, Winter plant response rating: 0
[4]; [20]
  Plant response rating, Barley, Winter: 5
[5]; [14]
  Bluegrass plant response rating: 0
[5]; [15]
  Plant response rating, Bluegrass: 5
[5]; [16]
  Plant response rating, Bluegrass: 5
[5]; Preemergence, 31 g ai/ha
  Plant response rating (scale of 0 to 100), Bluegrass: 5
[5]; [17]
  Plant response rating, Bluegrass: 15
[5]; [18]
  Plant response rating, Bluegrass: 35
[5]; [19]
  Bluegrass plant response rating: 50
[5]; [20]
  Plant response rating, Bluegrass: 5
[6]; [14]
  Field Poppy plant response rating: 95
[6]; [15]
  Plant response rating, Field Poppy: 100
[6]; [16]
  Plant response rating, Field Poppy: 95
[6]; Preemergence, 31 g ai/ha
  Plant response rating (scale of 0 to 100), Field Poppy: 95
[6]; [17]
  Plant response rating, Field Poppy: 95
[6]; [18]
  Plant response rating, Field Poppy: 95
[6]; [19]
  Plant response rating, Field Poppy: 95
[6]; [20]
  Plant response rating, Field Poppy: 95
[7]; [14]
  Deadnettle plant response rating: 35
[7]; [15]
  Plant response rating, Deadnettle: 35
[7]; [16]
  Plant response rating, Deadnettle: 70
[7]; Preemergence, 31 g ai/ha
  Plant response rating (scale of 0 to 100), Deadnettle: 0
[7]; [17]
  Plant response rating, Deadnettle: 0
[7]; [18]
  Plant response rating, Deadnettle: 0
[7]; [19]
  Plant response rating, Deadnettle: 60
[7]; [20]
  Plant response rating, Deadnettle: 35
[8]; [14]
  Chickweed plant response rating: 80
[8]; [15]
  Plant response rating, Chickweed: 90
[8]; [16]
  Plant response rating, Chickweed: 100
[8]; Preemergence, 31 g ai/ha
  Plant response rating (scale of 0 to 100), Chickweed: 100
[8]; [17]
  Plant response rating, Chickweed: 90
[8]; [18]
  Plant response rating, Chickweed: 100
[8]; [19]
  Plant response rating, Chickweed: 100
[8]; [20]
  Plant response rating, Chickweed: 80
[9]; [14]
  Wheat, Winter plant response rating: 0
[9]; [15]
  Plant response rating, Wheat, Winter: 0
[9]; [16]
  Plant response rating, Wheat, Winter: 5
[9]; Preemergence, 31 g ai/ha
  Plant response rating (scale of 0 to 100), Wheat, Winter: 0
[9]; [17]
  Plant response rating, Wheat, Winter: 0
[9]; [18]
  Plant response rating, Wheat, Winter: 5
[9]; [19]
  Plant response rating, Wheat, Winter: 5
[9]; [20]
  Plant response rating, Wheat, Winter: 0
[10]; [14]
  Windgrass plant response rating: 10
[10]; [15]
  Plant response rating, Windgrass: 50
[10]; [16]
  Plant response rating, Windgrass: 70
[10]; Preemergence, 31 g ai/ha
  Plant response rating (scale of 0 to 100), Windgrass: 15
[10]; [17]
  Plant response rating, Windgrass: 60
[10]; [18]
  Plant response rating, Windgrass: 85
[10]; [19]
  Plant response rating, Windgrass: 100
[10]; [20]
  Plant response rating, Windgrass: 25
[11]; [14]
  Plant response rating, Barley, Spring: 0
[11]; [15]
  Plant response rating, Barley, Spring: 5
[11]; [16]
  Plant response rating, Barley, Spring: 10
[11]; Preemergence, 31 g ai/ha
  Plant response rating (scale of 0 to 100), Barley, Spring: 0
[11]; [17]
  Plant response rating, Barley, Spring: 0
[11]; [18]
  Plant response rating, Barley, Spring: 10
[11]; [19]
  Barley, Spring plant response rating: 15
[11]; [20]
  Plant response rating, Barley, Spring: 5
[12]; [14]
  Ryegrass, Italian plant response rating: 65
[12]; [15]
  Plant response rating, Ryegrass, Italian: 85
[12]; [16]
  Plant response rating, Ryegrass, Italian: 85
[12]; Preemergence, 31 g ai/ha
  Plant response rating (scale of 0 to 100), Ryegrass, Italian: 100
[12]; [17]
  Plant response rating, Ryegrass, Italian: 100
[12]; [18]
  Plant response rating, Ryegrass, Italian: 100
[12]; [19]
  Plant response rating, Ryegrass, Italian: 100
[12]; [20]
  Plant response rating, Ryegrass, Italian: 75
[13]; [14]
  Canarygrass plant response rating: 20
[13]; [15]
  Plant response rating, Canarygrass: 50
[13]; [16]
  Plant response rating, Canarygrass: 70
[13]; Preemergence, 31 g ai/ha
  Plant response rating (scale of 0 to 100), Canarygrass: 40
[13]; [17]
  Plant response rating, Canarygrass: 60
[13]; [18]
  Plant response rating, Canarygrass: 85
[13]; [19]
  Plant response rating, Canarygrass: 90
[13]; [20]
  Plant response rating, Canarygrass: 35
